Each structure is given as a SMILES string. pIC50: −log10 of the molar value.

For assay [1], the target named is EZH2 (Homo sapiens (Human), UniProt Q15910). Put plainly: ELISA (H3K27 methylation) assay in G401 cell. It is filed as cell-based. As to conditions: (b) ELISA Qualified assay, 48 h. The gist of the method:
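G401 cells were exposed for 48 h to 3-fold serial dilutions (8 or 12 points, top 20 μM final). Lysates were analysed by ELISA, with the H3K27 methylation signal normalized to total H3. Percent inhibition versus vehicle was fit to a dose-response curve for IC50.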

Assay [2] concerns the target wild type PRC2 (wtPRC2) complex (Homo sapiens (Human), UniProt Q15910). Put plainly: EZH2 LC-MS assay (LC-Qualified). It is filed as biochemical. To be noted: (a) LC-Qualified assay.
The subject of assay [3] is B cell lymphoma cell KARPAS422. Put plainly: Analysis of cell proliferation, KARPAS422. The format is cell-based, human. As to conditions: Homo sapiens, KARPAS-422, 336 h; KARPAS422 after 14 days of treatment; read-out: antiproliferative activities IC50. On the procedure: B cell lymphoma cell KARPAS422 was cultured using standard cell culture conditions in RPMI-1640 (Invitrogen, cat #11875) supplemented with 15% FBS (Invitrogen, cat #10099-141) in humidified incubator at 37° C., 5% CO2. To assess the effect of PRC2 inhibition on cell proliferation, exponentially growing cells were seeded at a density of 1×10^5 cells/mL in 12-well plate (Corning, cat #CLS3513). After cell seeding, a compound of the invention was added to the cell media (in concentrations ranging from 0 to 100 μM, 3× dilution series). Viable cell numbers were determined every 3-4 days for up to 14 days using Vi-CELL (Beckman Coulter). On days of cell counting, fresh growth media and compound were replenished and cells split back to a density of 1×10^5 cells/mL. Total cell number is expressed as split-adjusted viable cells per mL. The dose response curves and IC50 values were generated using Prism.

EZH2, sequence (Q15910 whole entry): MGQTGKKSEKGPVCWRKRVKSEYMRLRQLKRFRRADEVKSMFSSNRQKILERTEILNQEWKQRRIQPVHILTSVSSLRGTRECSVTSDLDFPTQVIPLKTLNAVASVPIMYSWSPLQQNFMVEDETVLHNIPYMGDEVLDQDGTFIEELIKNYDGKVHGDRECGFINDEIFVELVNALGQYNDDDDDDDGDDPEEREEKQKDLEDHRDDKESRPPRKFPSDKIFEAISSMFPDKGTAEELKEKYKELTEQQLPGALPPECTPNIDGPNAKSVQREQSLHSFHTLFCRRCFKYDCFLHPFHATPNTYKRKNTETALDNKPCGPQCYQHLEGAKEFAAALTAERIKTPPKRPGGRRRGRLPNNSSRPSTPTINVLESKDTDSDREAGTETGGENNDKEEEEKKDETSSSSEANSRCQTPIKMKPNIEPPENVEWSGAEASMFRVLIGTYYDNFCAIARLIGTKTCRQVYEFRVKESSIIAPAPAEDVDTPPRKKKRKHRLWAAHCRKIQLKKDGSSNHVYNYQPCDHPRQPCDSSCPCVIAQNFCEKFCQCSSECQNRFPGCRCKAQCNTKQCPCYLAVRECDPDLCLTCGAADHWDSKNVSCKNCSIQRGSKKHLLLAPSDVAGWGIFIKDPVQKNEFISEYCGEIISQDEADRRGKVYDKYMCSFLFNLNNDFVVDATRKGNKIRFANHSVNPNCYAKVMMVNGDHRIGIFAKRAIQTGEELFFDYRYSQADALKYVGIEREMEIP
EZH2, sequence (Q15022 whole entry partner): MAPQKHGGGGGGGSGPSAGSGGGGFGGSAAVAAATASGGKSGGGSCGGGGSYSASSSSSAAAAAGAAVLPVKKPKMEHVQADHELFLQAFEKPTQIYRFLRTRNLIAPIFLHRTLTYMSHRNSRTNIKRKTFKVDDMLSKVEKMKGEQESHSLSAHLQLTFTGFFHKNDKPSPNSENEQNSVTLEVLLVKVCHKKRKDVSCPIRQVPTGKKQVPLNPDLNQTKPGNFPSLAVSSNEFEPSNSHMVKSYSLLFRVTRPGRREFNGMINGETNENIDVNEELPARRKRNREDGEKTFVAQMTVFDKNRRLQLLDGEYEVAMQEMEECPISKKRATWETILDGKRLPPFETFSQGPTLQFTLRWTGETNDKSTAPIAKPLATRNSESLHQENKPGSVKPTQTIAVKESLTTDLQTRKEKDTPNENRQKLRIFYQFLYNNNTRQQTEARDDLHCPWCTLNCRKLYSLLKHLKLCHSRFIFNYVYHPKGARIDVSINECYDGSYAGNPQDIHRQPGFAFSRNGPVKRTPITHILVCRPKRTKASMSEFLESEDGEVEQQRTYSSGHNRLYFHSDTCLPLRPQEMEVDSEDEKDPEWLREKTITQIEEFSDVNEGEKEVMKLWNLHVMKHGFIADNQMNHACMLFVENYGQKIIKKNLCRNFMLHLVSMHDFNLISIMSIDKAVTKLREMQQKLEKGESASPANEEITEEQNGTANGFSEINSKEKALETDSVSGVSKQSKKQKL
EZH2, sequence (O75530 whole entry partner): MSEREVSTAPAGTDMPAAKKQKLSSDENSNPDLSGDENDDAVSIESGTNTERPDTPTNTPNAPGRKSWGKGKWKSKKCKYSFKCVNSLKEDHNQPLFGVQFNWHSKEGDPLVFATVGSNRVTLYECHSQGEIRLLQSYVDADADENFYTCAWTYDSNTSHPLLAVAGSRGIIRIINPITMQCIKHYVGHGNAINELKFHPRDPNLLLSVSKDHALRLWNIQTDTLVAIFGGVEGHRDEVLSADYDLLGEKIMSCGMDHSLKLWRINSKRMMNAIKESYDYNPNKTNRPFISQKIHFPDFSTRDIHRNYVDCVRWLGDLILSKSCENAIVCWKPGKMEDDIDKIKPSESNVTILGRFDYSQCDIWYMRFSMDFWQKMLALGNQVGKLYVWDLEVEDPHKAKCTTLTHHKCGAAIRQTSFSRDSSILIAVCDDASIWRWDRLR
EZH2, sequence (Q09028 whole entry partner): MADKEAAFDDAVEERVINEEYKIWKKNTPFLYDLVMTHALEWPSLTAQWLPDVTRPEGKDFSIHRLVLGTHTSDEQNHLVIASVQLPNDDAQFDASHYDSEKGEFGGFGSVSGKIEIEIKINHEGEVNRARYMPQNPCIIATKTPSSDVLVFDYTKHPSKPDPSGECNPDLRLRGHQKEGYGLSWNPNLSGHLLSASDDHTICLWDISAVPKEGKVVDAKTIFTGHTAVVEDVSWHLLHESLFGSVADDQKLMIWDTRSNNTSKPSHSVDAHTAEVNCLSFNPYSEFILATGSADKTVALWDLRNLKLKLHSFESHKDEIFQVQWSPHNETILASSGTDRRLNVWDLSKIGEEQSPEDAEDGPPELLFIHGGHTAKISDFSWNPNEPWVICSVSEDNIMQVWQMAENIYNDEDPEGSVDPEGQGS
wild type PRC2 (wtPRC2) complex, sequence (Q15910 whole entry): as the sequence (Q15910 whole entry) above
wild type PRC2 (wtPRC2) complex, sequence (Q15022 whole entry partner): as the sequence (Q15022 whole entry partner) above
wild type PRC2 (wtPRC2) complex, sequence (O75530 whole entry partner): as the sequence (O75530 whole entry partner) above
wild type PRC2 (wtPRC2) complex, sequence (Q09028 whole entry partner): as the sequence (Q09028 whole entry partner) above
wild type PRC2 (wtPRC2) complex, sequence (Q6ZN18 whole entry partner): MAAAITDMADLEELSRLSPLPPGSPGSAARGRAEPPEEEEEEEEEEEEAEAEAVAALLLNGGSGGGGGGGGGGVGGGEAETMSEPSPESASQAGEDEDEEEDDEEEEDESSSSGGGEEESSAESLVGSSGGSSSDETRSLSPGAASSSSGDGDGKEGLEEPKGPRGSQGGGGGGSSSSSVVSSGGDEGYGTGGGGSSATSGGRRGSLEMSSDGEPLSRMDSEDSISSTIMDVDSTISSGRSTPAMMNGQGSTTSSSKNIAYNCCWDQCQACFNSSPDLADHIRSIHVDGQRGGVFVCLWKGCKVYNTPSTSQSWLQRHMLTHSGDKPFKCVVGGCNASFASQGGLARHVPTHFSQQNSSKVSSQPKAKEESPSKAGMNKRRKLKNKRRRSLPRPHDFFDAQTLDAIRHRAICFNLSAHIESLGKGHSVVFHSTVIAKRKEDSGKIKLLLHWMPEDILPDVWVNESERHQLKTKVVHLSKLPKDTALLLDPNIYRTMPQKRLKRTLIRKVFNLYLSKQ

For `O=C(Cc1cnc(NC[C@H]2CC[C@H](Nc3ccc4ccnc(Cl)c4n3)CC2)nc1)N(CCO)C1COC1` [Compound C51, 2-(2-((((1,4-trans)-4-((8-chloro-1,7-naphthyridin-2-yl)amino)cyclohexyl)methyl)amino)pyrimidin-5-yl)-N-(2-hydroxyethyl)-N-(oxetan-3-yl)acetamide], the values for the IC50 in assay [1] and in assay [2] were 0.018 µM and 0.038 µM, respectively. Moreover, the pIC50 in assay [3] is 8.10.
For `Clc1nccc2ccc(N[C@H]3CC[C@H](CNc4ncc(CNC5COC5)cn4)CC3)nc12` [Compound C27, 8-chloro-N-((1,4-trans)-4-(((5-((oxetan-3-ylamino)methyl)pyrimidin-2-yl)amino)methyl)cyclohexyl)-1,7-naphthyridin-2-amine], in that order: 0.019 µM, 0.027 µM and 8.10.
As to `COc1nccc2ccc(N[C@H]3CC[C@H](CNc4ncc(C(=O)N5CCNCC5)cn4)CC3)nc12` [Compound C8, (2-((((1,4-trans)-4-((8-methoxy-1,7-naphthyridin-2-yl)amino)cyclohexyl)methyl)amino)pyrimidin-5-yl)(piperazin-1-yl)methanone], the IC50 in assay [1] stood at 0.077 µM; in assay [2] it was 0.07 µM. For the same molecule, in assay [3], the pIC50 is 7.14.
For `O=C(Cc1cnc(NC[C@H]2CC[C@H](Nc3ccc4ccnc(Cl)c4n3)CC2)nc1)NC1COC1` [Compound C36, 2-(2-((((1,4-trans)-4-((8-chloro-1,7-naphthyridin-2-yl)amino)cyclohexyl)methyl)amino)pyrimidin-5-yl)-N-(oxetan-3-yl)acetamide], in that order: 0.011 µM, 0.009 µM and 8.52.
The like results for `CC1(NCc2cnc(NC[C@H]3CC[C@H](Nc4ccc5ccnc(Cl)c5n4)CC3)nc2)COC1` [Compound C28, 8-chloro-N-((1,4-trans)-4-(((5-(((3-methyloxetan-3-yl)amino)methyl)pyrimidin-2-yl)amino)methyl)cyclohexyl)-1,7-naphthyridin-2-amine] were, in that order, 0.005 µM, 0.031 µM and 8.70.
For `N#CCCN(C(=O)Cc1cnc(NC[C@H]2CC[C@H](Nc3ccc4ccnc(Cl)c4n3)CC2)nc1)C1COC1` [Compound C49, 2-(2-((((1,4-trans)-4-((8-chloro-1,7-naphthyridin-2-yl)amino)cyclohexyl)methyl)amino)pyrimidin-5-yl)-N-(2-cyanoethyl)-N-(oxetan-3-yl)acetamide], in that order: 0.002 µM, 0.008 µM and 9.30.

The record behind these values is patent publication US12544374B2, “AZA-quinoline compounds and uses thereof” (Novartis AG, priority 2019, dated 2026).
